Results reported in article PMC11574021, “CEP192 localises mitotic Aurora-A activity by priming its interaction with TPX2” (The EMBO Journal, 2024).

Key:
[1] = tested on: Aurora-A in U251 and RPE1 cells; experiment: Western blot, total Aurora-A protein level; format: cell-based, Homo sapiens; conditions: mitotic U251 and RPE1 lysates, siRNA 48 h
Protocol: Cells were lysed on ice for 30 min in lysis buffer (50 mM tris pH 8.0, 300 mM NaCl, 0.2%(v/v) NP-40, 10%(v/v) glycerol, protease inhibitor cocktail C, phosphatase inhibitor cocktail 3 (Sigma, 1:200 dilution), 100 nM okadaic acid (Enzo, ALX-350-003-C100)). Lysates were then centrifuged at 14,000 × g, 15 min, 4 °C, the supernatants were transferred to a fresh tube, and the pellet was discarded. Protein concentrations were measured by Bradford assay using Protein Assay Dye Reagent Concentrate (Bio-Rad Laboratories, 5000006). NuPage LDS sample buffer, supplemented with NuPAGE sample reducing agent (Invitrogen) were added prior to boiling for 10 min at 90 °C. Equal amounts of protein, between 8–20 µg/lane, were loaded into pre-cast 4–12% Bis-Tris gels (Invitrogen, NP0322BOX) and proteins separated in 1x MOPS buffer (Invitrogen) and transferred to nitrocellulose membrane (0.45 µM). Nitrocellulose was then blocked in 5% milk (wt/v) in TBS, 0.1% Tween (v/v) (TBST) for 1 h. Primary and secondary antibodies were diluted in 5% milk, TBST and incubated overnight at 4 °C or for 1 h at room temperature, respectively. Species-specific secondary antibodies conjugated to horseradish peroxidase (HRP) were used (anti-Mouse, Cytiva NA931V; anti-Rabbit, Cytiva NA934; anti-Sheep, Jackson 713-035-003). Membranes were washed for 1 h in TBST, changing the buffer five times, after each antibody incubation. […]

[2] = biological target: T1, phosphorylated Aurora-A CAKD (Homo sapiens, UniProt O14965, C290A/C393A); experiment: ADP-Glo kinase assay, kemptide substrate; format: biochemical; conditions: ADP-Glo, phosphorylated Aurora-A CAKD, kemptide; in words
T1 construct: 10 nM Aurora-A 122–403 C290A C393A phosphorylated protein; His (N, cleaved yes); made in house; host or cells: E. coli B834 (no lambda phosphatase)
T1 sequence (O14965 122-403 C290A/C393A): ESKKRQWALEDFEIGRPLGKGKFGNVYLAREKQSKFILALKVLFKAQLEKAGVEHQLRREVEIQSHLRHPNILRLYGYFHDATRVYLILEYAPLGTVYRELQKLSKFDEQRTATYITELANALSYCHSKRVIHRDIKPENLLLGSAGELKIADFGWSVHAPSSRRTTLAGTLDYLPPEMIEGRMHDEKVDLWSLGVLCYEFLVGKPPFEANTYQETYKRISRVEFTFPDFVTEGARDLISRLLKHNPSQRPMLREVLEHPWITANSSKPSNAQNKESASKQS
In short: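 Reactions started with 10 μM ATP and 100 μM kemptide, 60 min at room temperature, then ADP-Glo luminescence read-out. Control-subtracted signals from three repeats averaged and fitted to sigmoidal curves for IC50 and EC50.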

| Compound | total Aurora-A protein levels [1] | effect on Aurora-A kinase activity [2] |
| --- | --- | --- |
| 5′-CGGUAGUGAUAAAAGCUCAtt-3′ [siTPX2] | decreased total Aurora-A protein levels | – |
| COc1cc(Nc2ncc3c(n2)-c2ccc(Cl)cc2C(c2c(F)cccc2OC)=NC3)ccc1C(=O)O [Alisertib] | – | fully inhibited activity |
